Measured values published in paper PMC11775380, “Discovery of Novel Nav1.7-Selective Inhibitors with the 1H-Indole-3-Propionamide Scaffold for Effective Pain Relief” (Research, 2025).

Key:
[1] = test system: small (<30 μm) DRG neurons; test: Current-clamp recording of action potential firing (membrane excitability); assay type: cell-based, mouse; conditions: 10 μM
Method: To investigate the mechanism of action of WN2-R and facilitate animal model experiments, we used voltage-clamp recording to test the effects of WN2-R on the native Na^+-, K^+-, and Ca^2+-mediated currents in DRG neurons. […] Furthermore, the effects of WN2-R on membrane excitability were examined in small (<30 μm) DRG neurons from mice using current-clamp recordings.
DRG isolation and culture were performed according to our previous report. Briefly, C57BL/6 mice (weight 18 to 20 g, 6 to 8 weeks) were euthanized via cervical dislocation under anesthesia. Lumbar DRGs were isolated from the L4 to L5 segments of the lumbar spinal cord. The DRG neurons were subsequently dissociated through enzymatic digestion with collagenase (0.32 mg/ml) and trypsin (0.15 mg/ml) at 37 °C for 30 min, with intermittent shaking. After centrifugation at 800 rpm for 5 min at room temperature, the cells were seeded onto poly-L-lysine-coated coverslips and cultured in DMEM (Gibco) supplemented with 10% fetal bovine serum (Gibco). […]
For recording Nav currents of DRG neurons, the bath solution contains (in mM) 30 NaCl, 1 MgCl2, 1.8 CaCl2, 5 CsCl, 5 KCl, 25 D-glucose, 5 HEPES, 0.1 CdCl2, and TEA-Cl (pH 7.4 with NaOH), and the pipette solution contains (in mM) 135 CsCl, 10 NaCl, and 5 HEPES (pH 7.4 with CsOH). The Nav current program is recorded following the above method. […]

[2] = test system: SNI neuropathic pain model in mice; test: Spared nerve injury (SNI) neuropathic pain model; assay type: in vivo, C57 mice
From the text: Peripheral nerve injury models were developed to investigate the mechanisms of neuropathic pain. One such model, the spared nerve injury (SNI) neuropathic pain model in mice, involved ligating and transecting the […] and tibial nerves within the […] nerve, while leaving the sural nerve untouched. […] To evaluate the neuroanalgesic potential of WN2-R in this model, both i.g. and i.m. routes were used to evaluate the neuroanalgesic effect of WN2-R in this model (n = 5). […] In contrast, PF-05089771 reached its peak at 1 h (PWTs = 1.08 g) but then rapidly lost its efficacy, resembling the saline control group after 1 h. Throughout the experiment, the PWTs of the WN2-R group remained consistently higher than that of the PF-05089771 group (Fig. 6F and G). […] Subsequently, the efficacy of both drugs gradually declined, converging with the saline group after 3 h. Throughout the entire dosing period, the PWTs of the WN2-R group were slightly higher than that of the PF-05089771 group (Fig. 6M and N). […] To elucidate the time course of pain hypersensitivity induced by SNI, the behavioral responses (mechanical testing with von Frey fibers) were measured before surgery (baseline value) in C57 mice (5 female). Then, the mice underwent SNI surgery, which involved ligation and axotomy of the common peroneal and tibial nerves, while sparing the sural nerve. Sham-operated mice served as controls, with their nerves remaining intact. To confirm the presence of pain hypersensitivity in the SNI group, behavioral testing was carried out 14 days after SNI in each animal. Post drugs/saline administration, PWTs were measured at 0, 0.5, 1, 1.5, 2, 2.5, and 3 h for the i.g. route, and at 0, 0.5, 1, 2, 3, and 4 h for the i.m. route.

[3] = test system: acetic acid writhing pain model in mice; test: Acetic acid-induced writhing test; assay type: in vivo, ICR mice; conditions: 15 min before acetic acid, writhing counted 30 min
From the text: Acute pain was a common type of pain with considerable value for drug development. Here, 2 acute inflammatory pain models were used to verify the acute analgesic effect of WN2-R. One such model, the acetic acid writhing pain model in mice, is a well-established acute visceral pain model. It simulates clinically relevant intestinal discomfort by stimulating the abdominal mucosa and intestine with acetic acid and has been extensively used to screen analgesic or anti-inflammatory drugs. Based on this model, we evaluated the acute analgesic effect of WN2-R using 2 drug delivery methods, i.g. and […] (n = 6). […] Furthermore, the analgesic effect of WN2-R at the same dose was similar to that of the positive control drug PF-05089771, with no significant difference between these two. […] Three male and 3 female ICR mice were used in the acetic acid-induced writhing test. Mice were preadministered with either WN2-R (5 mg/kg i.g., 1 mg/kg i.m.), PF05089771 (5 mg/kg i.g., 1 mg/kg i.m.), or saline 15 min before i.p. injection of 0.2 ml of acetic acid (0.8%, V/V). Each mouse was then placed in an individual open polyvinyl cage (30 cm × 40 cm × 30 cm). The number of writhing responses, characterized by a wave of abdominal muscle contraction followed by hind limb extension, was recorded for 30 min after acetic acid injection. These responses served as an indication of nociceptive intensity. The percentage of inhibition was calculated using the following equation: Inhibition% = (Writhing Numbervehicle – Writhing Numberdrug)/Writhing Numbervehicle × 100% [15, 47].

Q: With `Cc1ccc(Cn2cc([C@H](CC(=O)NCCN(C)C)c3ccc(F)cc3)c3ccccc32)cc1` [WN2-R] as the compound, how does the “Action potential (AP) firing in response to depolarizing currents” value [1] read?
A: markedly reduced

Q: What about the “Duration of significant efficacy” value ([2]; i.g.) of the same compound?
A: at least 2 h

Q: What about the “Paw withdrawal threshold (PWTs)” value ([2]; i.g., 1 h post drug application, 14 days after SNI) of the same compound?
A: 1.72 g

Q: And the “Time after which efficacy converged with the saline group” value ([2]; i.m.)?
A: 3 h

Q: What about the “Time of peak efficacy” value ([2]; i.m.) of the same compound?
A: 1 h

Q: And the “Paw withdrawal threshold (PWTs) at peak efficacy” value ([2]; i.m., 1 h post drug application, 14 days after SNI)?
A: 1.39 g

Q: And the “Analgesic rate (normalized number of writhing)” value ([3]; i.g., 5 mg/kg)?
A: 30.0%

Q: And the “Analgesic rate (normalized number of writhing)” value ([3]; i.p. (method: 1 mg/kg i.m.))?
A: 34.1%
